Source: patent US9993457B2, “Method of improving visual processing, visual acuity, or both by administering compositions comprising RRR-alpha-tocopherol and carotenoid to infants” (ABBOTT LABORATORIES, priority 2014, dated 2018)
Like-named read-outs stand apart in the source and are kept apart here.

Assays:
[1] = in vivo
Source text: In Example 1, the brain tissues of infants were sampled to measure the concentration of total alpha-tocopherol and RRR-alpha-tocopherol.
Subjects were infants (n=25) who died during the first year of life from either SIDS or other conditions. Brain tissues (occipital cortex, OC {n=17}; frontal cortex, FC {n−17}; and hippocampus, HPC {n=19}) from the NICHD Brain and Tissue Bank were processed using standard lipid extraction procedures and analyzed using chiral reverse phase HPLC. Data are presented as concentrations (μg/g tissue) of total alpha-tocopherol or RRR-alpha-tocopherol in the brain tissue.
The mean concentration in each region is denoted by a horizontal bar. […] In addition, total alpha-tocopherol was analyzed by age (in days) in the frontal cortex (graph B), hippocampus (graph C), and occipital cortex (graph D). […] RRR-alpha-tocopherol concentrations were also measured in the frontal cortex (graph E), hippocampus (graph F), and occipital cortex (graph G) of human infant brain tissues and reported as a function of age.

[2] = cited from earlier work

Structure (SMILES) | correlation between age and mean concentration [1] | stereoisomer predominance compared to all non-RRR-alpha-tocopherol stereoisomers [1] | biological activity relative to all-rac-alpha-tocopherol ([2]; accepted nutritional guidelines) [times] | biological activity relative to all-rac-alpha-tocopherol ([2]; recent studies) | change of total alpha-tocopherol concentration with age [1]
Cc1c(C)c2c(c(C)c1O)CC[C@@](C)(CCC[C@H](C)CCC[C@H](C)CCCC(C)C)O2 [RRR-alpha-tocopherol] | strong correlation | predominant stereoisomer | 1.36 | about 2 times | 
Cc1c(C)c2c(c(C)c1O)CC[C@@](C)(CCC[C@H](C)CCC[C@H](C)CCCC(C)C)O2 [alpha-tocopherol] |  |  |  |  | increased with age
